According to the NIST ThermoML archive (doi:10.1021/acs.jced.6b00178):

Assay: xn = mol fraction of the nth substance listed
Settings: 100 kPa, Liquid; for viscosity: Concentric cylinders viscometry; for mass density: Vibrating tube method

CCCCn1cc[n+](C)c1.N#CN=C=[N-] [1-butyl-3-methylimidazolium dicyanamide] + CCCC[n+]1ccn(C)c1.O=S(=O)([N-]S(=O)(=O)C(F)(F)F)C(F)(F)F
Settings	mass density, x2 = 0 [kg/m3]	mass density, x2 = 0.251 [kg/m3]	mass density, x2 = 0.457 [kg/m3]	mass density, x2 = 0.749 [kg/m3]	viscosity, x2 = 0 [mPa·s]	viscosity, x2 = 0.251 [mPa·s]	viscosity, x2 = 0.457 [mPa·s]	viscosity, x2 = 0.749 [mPa·s]
283.15 K	1070	1194.3	1280.8	1381.8	58.35	72.33	82.5	95.81
288.15 K	1066.7	1190.5	1276.6	1377.2	45.91	56.47	64.11	73.99
293.15 K	1063.4	1186.7	1272.5	1372.7	36.83	44.98	50.83	58.31
298.15 K	1060.2	1183	1268.5	1368.1	30.08	36.45	41.02	46.82
303.15 K	1057	1179.3	1264.4	1363.6	24.94	30.02	33.66	38.18
308.15 K	1053.8	1175.7	1260.4	1359.2	20.98	25.08	28.01	31.61
313.15 K	1050.6	1172	1256.4	1354.7	17.86	21.22	23.6	26.5
318.15 K	1047.5	1168.4	1252.4	1350.3	15.38	18.16	20.12	22.48
323.15 K	1044.4	1164.9	1248.5	1345.9	13.38	15.7	17.33	19.27
328.15 K	1041.3	1161.3	1244.6	1341.5	11.74	13.69	15.06	16.68
333.15 K	1038.2	1157.8	1240.7	1337.2	10.38	12.05	13.27	14.56
338.15 K	1035.2	1154.3	1236.8	1332.9	9.251	10.68	11.72	12.82
343.15 K	1032.1	1150.8	1233	1328.6	8.298	9.53	10.43	11.36
348.15 K	1029.1	1147.3	1229.2	1324.3	7.488	8.56	9.335	10.14
353.15 K	1026.1	1143.8	1225.4	1320	6.794	7.728	8.408	9.098
358.15 K	1023.2	1140.4	1221.6	1315.8	6.196	7.016	7.615	8.211
363.15 K	1020.3	1137	1217.9	1311.6	5.677	6.403	6.932	7.449
